Where a name gives a salt, the structure may show the parent alone.

The experiment deals with clot lysis (fibrinolysis) in diluted human citrated plasma, tPA-induced. The experiment is described as follows: Plasma-based clot lysis assay (5%). The experiment is classed as biochemical. The following applies: human citrated platelet-poor plasma 5%, fibrinogen 3 μM, CaCl2 10 mM, tPA 0.2 nM, 37° C., OD at 405 nm. The method, then: B-2. Plasma-based Clot Lysis Assay (5%)
The clot-lysis test system configures the kinetics of clot formation and degradation in vitro and allows quantifying modulation of the process by selected test compounds.
The test compounds were dissolved in 1% acetic acid and further complemented with an equal volume of DMSO. The resulting stock solutions were serially diluted in 0.5% acetic acid/50% DMSO. 1 μL aliquots of these solutions were placed into 384 well microplates (Greiner, black, transparent bottom), followed by 30 μL of diluted human citrated plasma (platelet-poor, final concentration: 5%; supplemented with fibrinogen, final concentration: 3 μM; dilution buffer: 20 mM HEPES, 150 mM NaCl, 0.01% Brij (pH 7)). The reactions were started by addition of 20 μL of CaCl2 (final concentration: 10 mM), and tPA (tissue plasminogen activator, final concentration: 0.2 nM) in dilution buffer, followed by an additional volume of 20 μL dilution buffer for improved mixing. The reactions were incubated at 37° C. […] IC50 values were determined by comparing the resulting time courses with the time course of a blank control reaction.

`CCC(c1ccc(OC)cc1)c1nc(-c2cnn3c(C4CCNCC4)cc(=O)[nH]c23)no1` (racemic) [Example 241, 3-{5-[rac-1-(4-methoxyphenyl)propyl]-1,2,4-oxadiazol-3-yl}-7-(piperidin-4-yl)pyrazolo[1,5-a]pyrimidin-5(4H)-one hydrochloride] displayed an IC50 of 0.021 µM. As for `CC1(c2nc(-c3cnn4c(C5CCNCC5)cc(=O)[nH]c34)no2)CC1` (racemic) [Example 381, Rac-3-[5-(1-Methylcyclopropyl)-1,2,4-oxadiazol-3-yl]-7-(piperidin-4-yl)pyrazolo[1,5-a]pyrimidin-5(4H)-one hydrochloride], the half-maximal inhibitory concentration (IC50) was 0.029 µM. In turn, `CC1(c2nc(-c3cnn4c(C5CCNCC5)cc(=O)[nH]c34)no2)CCCC1` (racemic) [Example 386, Rac-3-[5-(1-Methylcyclopentyl)-1,2,4-oxadiazol-3-yl]-7-(piperidin-4-yl)pyrazolo[1,5-a]pyrimidin-5(4H)-one hydrochloride] displayed an IC50 of 0.028 µM.

With `O=c1cc(C2CCNCC2)n2ncc(-c3noc(C4CCCO4)n3)c2[nH]1` (racemic) [Example 389, Rac-7-(piperidin-4-yl)-3-(5-(tetrahydrofuran-2-yl)-1,2,4-oxadiazol-3-yl)pyrazolo[1,5-a]pyrimidin-5(4H)-one hydrochloride], the IC50 is 0.03 µM. `COCc1nn2c(C3CCNCC3)cc(=O)[nH]c2c1-c1ccc(OC)cc1` [Example 3, 2-(Methoxymethyl)-3-(4-methoxyphenyl)-7-(piperidin-4-yl)pyrazolo[1,5-a]pyrimidin-5 (4H)-one hydrochloride] had an IC50 of 0.033 µM. Molecule `O=c1cc(C2CCNCC2)n2ncc(-c3ccc(F)cc3)c2[nH]1` [Example 4, 3-(4-Fluorophenyl)-7-(piperidin-4-yl)pyrazolo[1,5-a]pyrimidin-5(4H)-one hydrochloride] registered an IC50 of 0.04 µM. The molecule `O=c1cc(C2CCNCC2)n2ncc(-c3cccnc3)c2[nH]1` [Example 5, 7-(Piperidin-4-yl)-3-(pyridin-3-yl)pyrazolo[1,5-a]pyrimidin-5 (4H)-one hydrochloride] yielded an IC50 of 0.032 µM. In the case of `Cc1nn2c(C3CCNCC3)cc(=O)[nH]c2c1C#N` [Example 8, 2-Methyl-5-oxo-7-(piperidin-4-yl)-4,5-dihydropyrazolo[1,5-a]pyrimidine-3-carbonitrile trifluoroacetate], the IC50 was 0.029 µM. Molecule `Cc1nn2c(C3CCNCC3)cc(=O)[nH]c2c1-c1ccc(Br)cc1` [Example 10, 3-(4-Bromophenyl)-2-methyl-7-(piperidin-4-yl)pyrazolo[1,5-a]pyrimidin-5(4H)-one hydrochloride] returned an IC50 of 0.11 µM. `NC(=O)c1cnn2c(C3CCNCC3)cc(=O)[nH]c12` [Example 14, 5-Oxo-7-(piperidin-4-yl)-4,5-dihydropyrazolo[1,5-a]pyrimidine-3-carboxamide hydrochloride] showed an IC50 of 0.024 µM. Then `N#Cc1cnn2c(C3CCNCC3)cc(=O)[nH]c12` [Example 15, 5-Oxo-7-(piperidin-4-yl)-4,5-dihydropyrazolo[1,5-a]pyrimidine-3-carbonitrile], with 0.019 µM.

Take `CCOC(=O)c1cnn2c(C3CCNCC3)cc(=O)[nH]c12` [Example 16, Ethyl 5-oxo-7-(piperidin-4-yl)-4,5-dihydropyrazolo[1,5-a]pyrimidine-3-carboxylate hydrochloride]: the IC50 is 0.011 µM. On to `O=C(O)c1cnn2c(C3CCNCC3)cc(=O)[nH]c12` [Example 17, 5-Oxo-7-(piperidin-4-yl)-4,5-dihydropyrazolo[1,5-a]pyrimidine-3-carboxylic acid hydrochloride], for which inhibition was half-maximal at 0.046 µM (IC50). `CC(C)CNC(=O)c1cnn2c(C3CCNCC3)cc(=O)[nH]c12` [Example 21, N-Isobutyl-5-oxo-7-(piperidin-4-yl)-4,5-dihydropyrazolo[1,5-a]pyrimidine-3-carboxamide hydrochloride]: inhibition was half-maximal at 0.014 µM (IC50). In turn, `O=C(NCc1ccccc1)c1cnn2c(C3CCNCC3)cc(=O)[nH]c12` [Example 22, N-Benzyl-5-oxo-7-(piperidin-4-yl)-4,5-dihydropyrazolo[1,5-a]pyrimidine-3-carboxamide hydrochloride] had an IC50 of 0.013 µM.

Consider `O=c1cc(C2CCNCC2)n2nc(C(F)(F)F)cc2[nH]1` [Example 24, 7-(Piperidin-4-yl)-2-(trifluoromethyl)pyrazolo[1,5-a]pyrimidin-5(4H)-one hydrochloride], for which the IC50 was 0.059 µM. In the case of `O=c1cc(C2CCNCC2)n2nc(-c3cccs3)cc2[nH]1` [Example 25, 7-(Piperidin-4-yl)-2-(2-thienyl)pyrazolo[1,5-a]pyrimidin-5(4H)-one hydrochloride], 0.16 µM corresponded to half-maximal inhibition (IC50). Then `O=c1cc(C2CCNCC2)n2nc(C3CC3)cc2[nH]1` [Example 26, 2-Cyclopropyl-7-(piperidin-4-yl)pyrazolo[1,5-a]pyrimidin-5(4H)-one hydrochloride], with 0.31 µM.

The molecule `O=c1cc(C2CCNCC2)n2nc(-c3ccc(F)cc3)cc2[nH]1` [Example 27, 2-(4-Fluorophenyl)-7-(piperidin-4-yl)pyrazolo[1,5-a]pyrimidin-5(4H)-one hydrochloride] displayed an IC50 of 0.17 µM. Regarding `COC(=O)c1cc2[nH]c(=O)cc(C3CCNCC3)n2n1` [Example 28, Methyl 5-oxo-7-(piperidin-4-yl)-4,5-dihydropyrazolo[1,5-a]pyrimidine-2-carboxylate], 0.11 µM corresponded to half-maximal inhibition (IC50).

`O=c1cc(C2CCNCC2)n2nc(-c3ccccc3)c(Br)c2[nH]1` [Example 29, 3-Bromo-2-phenyl-7-(piperidin-4-yl)pyrazolo[1,5-a]pyrimidin-5(4H)-one hydrochloride] returned an IC50 of 0.02 µM. On to `O=c1cc(C2CCNCC2)n2nc3c(c2[nH]1)CCC3` [Example 30, 4-(Piperidin-4-yl)-1,7,8,9-tetrahydro-2H-cyclopenta[3,4]pyrazolo[1,5-a]pyrimidin-2-one hydrochloride], for which 0.2 µM corresponded to half-maximal inhibition (IC50). With `Cc1noc(-c2cnn3c(C4CCNCC4)cc(=O)[nH]c23)n1` [Example 32, 3-(3-Methyl-1,2,4-oxadiazol-5-yl)-7-(piperidin-4-yl)pyrazolo[1,5-a]pyrimidin-5(4H)-one hydrochloride], the midpoint of inhibition, the IC50, lay at 0.015 µM.

`CCCc1noc(-c2cnn3c(C4CCNCC4)cc(=O)[nH]c23)n1` [Example 34, 7-(Piperidin-4-yl)-3-(3-propyl-1,2,4-oxadiazol-5-yl)pyrazolo[1,5-a]pyrimidin-5(4H)-one hydrochloride] gave an IC50 of 0.012 µM.

`O=c1cc(C2CCNCC2)n2ncc(-c3nc(-c4ccccc4)no3)c2[nH]1` [Example 35, 3-(3-Phenyl-1,2,4-oxadiazol-5-yl)-7-(piperidin-4-yl)pyrazolo[1,5-a]pyrimidin-5(4H)-one hydrochloride] yielded an IC50 of 0.015 µM. As to `Cc1ccc(S(C)(=O)=NC(=O)c2cnn3c(C4CCNCC4)cc(=O)[nH]c23)cc1` (stereo not drawn) [Example 36, N-[Methyl(4-methylphenyl)oxido-lambda^6-sulfanylidene]-5-oxo-7-(piperidin-4-yl)-4,5-dihydropyrazolo[1,5-a]pyrimidine-3-carboxamide hydrochloride], the IC50 was 0.028 µM. Regarding `O=C(N=S1(=O)CCOCC1)c1cnn2c(C3CCNCC3)cc(=O)[nH]c12` [Example 37, N-(4-Oxido-1,4-lambda^4-oxathian-4-ylidene)-5-oxo-7-(piperidin-4-yl)-4,5-dihydropyrazolo[1,5-a]pyrimidine-3-carboxamide hydrochloride], the IC50 was 0.029 µM.

By IC50 is commonly meant the concentration needed to halve the response being measured. A higher IC50 goes with weaker potency.

These data come from US10118930B2, “Piperidinylpyrazolopyrimidinones and their use” (BAYER PHARMA AKTIENGESELLSCHAFT, priority 2015, dated 2018).
